Key:
non-expressing oocytes = experiment: cells; format: cell-based, Xenopus laevis; conditions: total [3H]CQ transport; for Uptake of [3H]CQ (% non-expressing oocyte control), cis-inhibition: non-expressing oocytes, normalised to the oocyte type control; for Uptake of [3H]CQ (% PfCRTDd2 control), cis-inhibition, non-expressing oocytes: mean ± SEM, SEM
Outline: (§1)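 PfCRT-expressing and control oocytes: ND96 pH 5.5 → 1.5 h at 27.5 °C → ice-cold ND96 wash → 10% SDS lysis → scintillation count.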

PfCRT^3D7 = PfCRT^3D7 (Plasmodium falciparum, UniProt Q8IBZ9); experiment: cell-based; format: cell-based; conditions: total [3H]CQ transport; for Uptake of [3H]CQ (% PfCRTDd2 control), cis-inhibition, PfCRT3D7: mean ± SEM, SEM
Outline: as §1

PfCRT^Dd2 = PfCRT^Dd2 (Plasmodium falciparum, UniProt Q9N623, A220S/I356T/K76T/M74I/N326S/N75E/Q271E/R371I); experiment: [3H]CQ uptake into Xenopus oocytes, cis-inhibition by unlabelled solute; format: cell-based; conditions: for PfCRT-mediated [3H]CQ transport, cis-inhibition (% PfCRTDd2 control): PfCRTDd2 oocytes, background [3H]CQ accumulation subtracted, normalised to oocyte type control; for Uptake of [3H]CQ (% PfCRTDd2 control), cis-inhibition, PfCRTDd2: total [3H]CQ transport, mean ± SEM, SEM
Outline: as §1

PfCRT^Ecu1110 = PfCRT^Ecu1110 (Plasmodium falciparum, UniProt Q9N623, A220S/I356L/K76T/N326D); experiment: as above; format: cell-based; conditions: for Uptake of [3H]CQ (% PfCRTEcu1110 control), cis-inhibition / PfCRT-mediated [3H]CQ transport, cis-inhibition (% PfCRTEcu1110 control): PfCRTEcu1110 oocytes; for Uptake of [3H]CQ (% PfCRTEcu1110 control), cis-inhibition / Uptake of [3H]CQ (% PfCRTDd2 control), cis-inhibition, PfCRTEcu1110: total [3H]CQ transport; for Uptake of [3H]CQ (% PfCRTEcu1110 control), cis-inhibition: normalised to the oocyte type control; for PfCRT-mediated [3H]CQ transport, cis-inhibition (% PfCRTEcu1110 control): background [3H]CQ accumulation subtracted, normalised to oocyte type control; for [3H]CQ transport (% PfCRTEcu1110 control), cis-inhibition, PfCRTEcu1110: PfCRT-mediated component (background subtracted), sheet title says normalised to PfCRTDd2 control; for [3H]CQ transport (% PfCRTEcu1110 control), cis-inhibition, PfCRTEcu1110 / Uptake of [3H]CQ (% PfCRTDd2 control), cis-inhibition, PfCRTEcu1110: mean ± SEM, SEM
Outline: as §1

PfNT1 = molecular target: T1, PfNT1 (Plasmodium falciparum, UniProt Q8IDM6); experiment: cell-based; format: cell-based; conditions: SEM
T1 construct: expressed in transfected cells; host or cells: Xenopus laevis oocytes (stage V-VI), cRNA-injected
Outline: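 Transport measured in Xenopus oocytes expressing the transporters, 1.5 h at 27.5 °C in ND96 pH 5.5 unless noted. For trans-stimulation, VF-6 injected in 25 nL ND96 at pH 5.0–7.0 or Na^+-free (choline) buffer; intracellular levels based on ~400 nL oocyte volume. Ten oocytes per treatment, ≥4 experiments.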

PfCRT [1] = experiment: Influx of VF-6 via PfCRT into the oocyte, solutes tested as potential co-substrates; format: cell-based, Plasmodium falciparum; set-up: key: X: Compounds that have been tested as potential co-substrates but are not required for influx of VF-6 via PfCRT into the oocyte; conditions: X marks the solute
PfCRT [2] = experiment: Test of solutes as potential co-substrates for influx of VF-6 via PfCRT into the oocyte; format: cell-based, Plasmodium falciparum; set-up: key: X: Compounds that have been tested as potential co-substrates but are not required for influx of VF-6 via PfCRT into the oocyte; conditions: X = tested
PfCRT [3] = experiment: Potential co-substrates tested for influx of VF-6 via PfCRT into the oocyte; format: cell-based, Plasmodium falciparum; set-up: key: X: Compounds that have been tested as potential co-substrates but are not required for influx of VF-6 via PfCRT into the oocyte

PfCRT^Ecu1110, sequence (Q9N623 whole entry A220S/I356L/K76T/N326D): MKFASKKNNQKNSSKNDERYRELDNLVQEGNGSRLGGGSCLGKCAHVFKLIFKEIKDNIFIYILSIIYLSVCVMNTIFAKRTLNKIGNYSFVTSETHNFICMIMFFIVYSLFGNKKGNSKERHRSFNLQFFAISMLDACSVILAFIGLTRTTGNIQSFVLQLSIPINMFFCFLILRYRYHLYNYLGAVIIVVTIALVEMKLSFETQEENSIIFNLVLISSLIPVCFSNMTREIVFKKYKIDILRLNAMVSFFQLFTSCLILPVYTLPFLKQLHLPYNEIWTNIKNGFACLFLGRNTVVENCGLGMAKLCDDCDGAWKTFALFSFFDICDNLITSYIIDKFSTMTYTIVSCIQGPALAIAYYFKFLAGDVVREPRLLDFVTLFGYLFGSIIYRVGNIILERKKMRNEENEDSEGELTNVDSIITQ
PfCRT^Dd2, sequence (Q9N623 whole entry A220S/I356T/K76T/M74I/N326S/N75E/Q271E/R371I): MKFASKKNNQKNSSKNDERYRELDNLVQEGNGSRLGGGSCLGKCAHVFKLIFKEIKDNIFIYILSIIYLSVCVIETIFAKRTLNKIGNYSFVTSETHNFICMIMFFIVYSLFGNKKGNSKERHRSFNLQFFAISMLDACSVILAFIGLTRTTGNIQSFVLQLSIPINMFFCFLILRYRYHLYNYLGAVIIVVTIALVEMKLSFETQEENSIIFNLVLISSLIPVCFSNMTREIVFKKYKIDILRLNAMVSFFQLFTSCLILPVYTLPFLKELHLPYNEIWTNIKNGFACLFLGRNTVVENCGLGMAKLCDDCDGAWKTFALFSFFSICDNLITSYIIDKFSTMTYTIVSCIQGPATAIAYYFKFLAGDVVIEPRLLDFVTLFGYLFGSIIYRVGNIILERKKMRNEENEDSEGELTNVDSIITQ
PfCRT^3D7, sequence (Q8IBZ9 59-398): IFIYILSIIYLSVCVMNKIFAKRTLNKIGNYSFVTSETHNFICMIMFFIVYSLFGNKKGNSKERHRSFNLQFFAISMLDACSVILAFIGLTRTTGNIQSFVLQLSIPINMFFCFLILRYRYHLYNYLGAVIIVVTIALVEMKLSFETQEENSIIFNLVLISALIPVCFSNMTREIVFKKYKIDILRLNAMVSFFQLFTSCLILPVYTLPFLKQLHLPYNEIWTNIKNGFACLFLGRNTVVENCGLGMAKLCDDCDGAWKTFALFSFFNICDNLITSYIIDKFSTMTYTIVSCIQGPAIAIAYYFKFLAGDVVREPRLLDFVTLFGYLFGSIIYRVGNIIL
T1 sequence (Q8IDM6 whole entry): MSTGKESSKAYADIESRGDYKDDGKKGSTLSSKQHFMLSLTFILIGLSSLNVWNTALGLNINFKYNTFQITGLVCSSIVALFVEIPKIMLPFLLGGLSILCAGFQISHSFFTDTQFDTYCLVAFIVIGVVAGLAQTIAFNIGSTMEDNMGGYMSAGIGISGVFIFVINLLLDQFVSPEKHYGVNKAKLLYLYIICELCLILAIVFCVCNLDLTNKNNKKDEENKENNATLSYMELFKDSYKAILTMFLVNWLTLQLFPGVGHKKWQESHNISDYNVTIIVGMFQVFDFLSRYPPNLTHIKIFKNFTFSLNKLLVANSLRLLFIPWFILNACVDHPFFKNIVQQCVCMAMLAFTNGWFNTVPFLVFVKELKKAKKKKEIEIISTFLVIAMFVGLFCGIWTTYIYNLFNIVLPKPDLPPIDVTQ

N[C@@H](CC(=O)O)C(=O)O [L-aspartatic acid]
Uptake of [3H]CQ (% non-expressing oocyte control), cis-inhibition (non-expressing oocytes; [test solute] = 0.5 mM): 101 ± 4.8 % non-expressing oocyte control | Uptake of [3H]CQ (% non-expressing oocyte control), cis-inhibition (non-expressing oocytes; [test solute] = 1 mM): 97 ± 6.3 % non-expressing oocyte control | Uptake of [3H]CQ (% non-expressing oocyte control), cis-inhibition (non-expressing oocytes; [test solute] = 2 mM): 100 ± 4.6 % non-expressing oocyte control | Uptake of [3H]CQ (% PfCRTDd2 control), cis-inhibition, non-expressing oocytes (non-expressing oocytes; [test solute] = 0.5 mM): 3.9 ± 0.03 % PfCRTDd2 control | Uptake of [3H]CQ (% PfCRTDd2 control), cis-inhibition, non-expressing oocytes (non-expressing oocytes; [test solute] = 1 mM): 3.2 ± 0.08 % PfCRTDd2 control | Uptake of [3H]CQ (% PfCRTDd2 control), cis-inhibition, non-expressing oocytes (non-expressing oocytes; [test solute] = 2 mM): 3.4 ± 0.1 % PfCRTDd2 control | Uptake of [3H]CQ (% PfCRT3D7 control), cis-inhibition (PfCRT^3D7; PfCRT3D7 oocytes, [test solute] = 2 mM, normalised to the oocyte type control): 100 ± 3.5 % PfCRT3D7 control | Uptake of [3H]CQ (% PfCRTDd2 control), cis-inhibition, PfCRT3D7 (PfCRT^3D7; [test solute] = 0.5 mM): 3.1 ± 0.07 % PfCRTDd2 control | Uptake of [3H]CQ (% PfCRTDd2 control), cis-inhibition, PfCRT3D7 (PfCRT^3D7; [test solute] = 1 mM): 2.6 ± 0.08 % PfCRTDd2 control | Uptake of [3H]CQ (% PfCRTDd2 control), cis-inhibition, PfCRT3D7 (PfCRT^3D7; [test solute] = 2 mM): 2.2 ± 0.06 % PfCRTDd2 control | PfCRT-mediated [3H]CQ transport, cis-inhibition (% PfCRTDd2 control) (PfCRT^Dd2; [test solute] = 0.5 mM): 90 ± 5.7 % PfCRTDd2 control | PfCRT-mediated [3H]CQ transport, cis-inhibition (% PfCRTDd2 control) (PfCRT^Dd2; [test solute] = 1 mM): 87 ± 6.1 % PfCRTDd2 control | PfCRT-mediated [3H]CQ transport, cis-inhibition (% PfCRTDd2 control) (PfCRT^Dd2; [test solute] = 2 mM): 73 ± 3.7 % PfCRTDd2 control | Uptake of [3H]CQ (% PfCRTDd2 control), cis-inhibition, PfCRTDd2 (PfCRT^Dd2; [test solute] = 0.5 mM): 93 ± 3.6 % PfCRTDd2 control | Uptake of [3H]CQ (% PfCRTDd2 control), cis-inhibition, PfCRTDd2 (PfCRT^Dd2; [test solute] = 1 mM): 89 ± 5.2 % PfCRTDd2 control | Uptake of [3H]CQ (% PfCRTDd2 control), cis-inhibition, PfCRTDd2 (PfCRT^Dd2; [test solute] = 2 mM): 75 ± 4.6 % PfCRTDd2 control | Uptake of [3H]CQ (% PfCRTEcu1110 control), cis-inhibition (PfCRT^Ecu1110; [test solute] = 0.5 mM): 94 ± 4.5 % PfCRTEcu1110 control | Uptake of [3H]CQ (% PfCRTEcu1110 control), cis-inhibition (PfCRT^Ecu1110; [test solute] = 1 mM): 90 ± 3.6 % PfCRTEcu1110 control | Uptake of [3H]CQ (% PfCRTEcu1110 control), cis-inhibition (PfCRT^Ecu1110; [test solute] = 2 mM): 83 ± 4.3 % PfCRTEcu1110 control | PfCRT-mediated [3H]CQ transport, cis-inhibition (% PfCRTEcu1110 control) (PfCRT^Ecu1110; [test solute] = 0.5 mM): 92 ± 1.4 % PfCRTEcu1110 control | PfCRT-mediated [3H]CQ transport, cis-inhibition (% PfCRTEcu1110 control) (PfCRT^Ecu1110; [test solute] = 1 mM): 88 ± 2.7 % PfCRTEcu1110 control | PfCRT-mediated [3H]CQ transport, cis-inhibition (% PfCRTEcu1110 control) (PfCRT^Ecu1110; [test solute] = 2 mM): 80 ± 1.3 % PfCRTEcu1110 control | [3H]CQ transport (% PfCRTEcu1110 control), cis-inhibition, PfCRTEcu1110 (PfCRT^Ecu1110; [test solute] = 0.5 mM): 28 ± 0.7 % PfCRTEcu1110 control | [3H]CQ transport (% PfCRTEcu1110 control), cis-inhibition, PfCRTEcu1110 (PfCRT^Ecu1110; [test solute] = 2 mM): 24 ± 0.1 % PfCRTEcu1110 control | Uptake of [3H]CQ (% PfCRTDd2 control), cis-inhibition, PfCRTEcu1110 (PfCRT^Ecu1110; [test solute] = 0.5 mM): 31 ± 1.5 % PfCRTDd2 control | Uptake of [3H]CQ (% PfCRTDd2 control), cis-inhibition, PfCRTEcu1110 (PfCRT^Ecu1110; [test solute] = 1 mM): 30 ± 1.4 % PfCRTDd2 control | Uptake of [3H]CQ (% PfCRTDd2 control), cis-inhibition, PfCRTEcu1110 (PfCRT^Ecu1110; [test solute] = 2 mM): 27 ± 1.0 % PfCRTDd2 control | Uptake of [3H]CQ (% PfCRTDd2 control), trans-stimulation, PfNT1 (PfNT1): 2.4 ± 0.08 % PfCRTDd2 control | Compounds that have been tested as potential co-substrates but are not required for influx of VF-6 via PfCRT into the oocyte (PfCRT [1]): X | Tested as potential co-substrate but not required for influx of VF-6 via PfCRT into the oocyte (PfCRT [2]): X | Tested as potential co-substrate but not required for influx of VF-6 via PfCRT into the oocyte (PfCRT [3]): X

— paper PMC7413254 (Nature Communications, 2020)
